From publication PMC2741501 (Molecular cell, 2009)
Where two headings read alike, the source gives them in different places.

How the values were obtained:
[1] = system: CviR binding to the vioA promoter; set-up: species or system Chromobacterium violaceum; settings: for DNA binding of purified CviR loaded with the molecule: vioA promoter probe, CviR 100-500 nM
CviR [2] = biological target: T1, CviR (Chromobacterium violaceum, UniProt D3W065); settings: for maximal gfp expression level compared with C6-HSL / EC50: E. coli vioA-gfp; for EC50: read-out: EC50, CviR activation of gfp expression; for induction of gfp expression through CviR: even at 100 μM
CviR [3] = biological target: T1, CviR; format: cell-based; settings: read-out: IC50, inhibition of CviR-dependent vioA-gfp expression; constant 500 nM C6-HSL
V. harveyi LuxN = V. harveyi LuxN (Vibrio campbellii, UniProt A7MRY4); format: cell-based; settings: read-out: IC50, inhibition of bioluminescence
CviR [4] = settings: molecule added at 50 μM, E. coli
[5] = system: C. violaceum killing of C. elegans; test: C. elegans lifespan assay on C. violaceum lawns; format: in vivo, Caenorhabditis elegans
[6] = V. harveyi BB960 (luxPQ mutant)

V. harveyi LuxN, sequence (A7MRY4 whole entry): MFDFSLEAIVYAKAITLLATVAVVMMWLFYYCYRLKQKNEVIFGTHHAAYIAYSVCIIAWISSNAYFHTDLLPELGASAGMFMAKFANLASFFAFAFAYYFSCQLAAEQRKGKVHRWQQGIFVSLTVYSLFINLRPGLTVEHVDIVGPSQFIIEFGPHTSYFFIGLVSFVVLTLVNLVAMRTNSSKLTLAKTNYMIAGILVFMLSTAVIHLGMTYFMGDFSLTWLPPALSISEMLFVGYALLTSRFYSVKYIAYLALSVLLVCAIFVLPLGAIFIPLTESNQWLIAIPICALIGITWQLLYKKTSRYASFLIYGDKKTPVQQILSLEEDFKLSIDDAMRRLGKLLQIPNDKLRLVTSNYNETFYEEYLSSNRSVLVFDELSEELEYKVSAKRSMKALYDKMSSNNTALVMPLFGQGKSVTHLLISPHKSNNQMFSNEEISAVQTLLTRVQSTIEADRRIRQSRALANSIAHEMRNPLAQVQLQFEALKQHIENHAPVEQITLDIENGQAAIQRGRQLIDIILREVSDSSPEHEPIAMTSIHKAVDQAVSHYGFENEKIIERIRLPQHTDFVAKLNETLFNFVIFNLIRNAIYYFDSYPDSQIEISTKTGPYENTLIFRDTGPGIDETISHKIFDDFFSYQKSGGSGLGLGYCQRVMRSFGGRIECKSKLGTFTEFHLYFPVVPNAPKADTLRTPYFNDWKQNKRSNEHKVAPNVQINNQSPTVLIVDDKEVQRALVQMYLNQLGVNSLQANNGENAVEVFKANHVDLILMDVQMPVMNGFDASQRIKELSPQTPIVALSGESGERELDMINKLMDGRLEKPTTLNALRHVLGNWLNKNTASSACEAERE
T1 sequence (D3W065 1-265): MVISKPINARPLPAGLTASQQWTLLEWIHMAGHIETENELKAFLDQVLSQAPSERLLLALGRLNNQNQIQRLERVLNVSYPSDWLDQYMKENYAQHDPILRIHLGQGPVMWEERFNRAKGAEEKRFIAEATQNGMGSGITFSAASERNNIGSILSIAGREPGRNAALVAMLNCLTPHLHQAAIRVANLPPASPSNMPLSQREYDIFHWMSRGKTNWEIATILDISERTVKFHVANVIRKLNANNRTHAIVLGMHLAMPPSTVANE

Compound	DNA binding of purified CviR loaded with the molecule [1]	EC50 (CviR [2]) [nM]	IC50 (CviR [3]) [nM]	induction of gfp expression through CviR (CviR [2])	further results
CCCCCCCC(=O)N[C@H]1CCOC1=O [C8-HSL]	bound DNA with similar affinity to CviR loaded with C6-HSL	30	–	–	maximal gfp expression level compared with C6-HSL (CviR [2]): only half of the maximal gfp expression
CCCCCCCCCCCC(=O)N[C@H]1CCOC1=O [C12-HSL]	no ability to bind DNA	–	494	do not induce gfp expression	–
CCCCCCCCCC(=O)N[C@H]1CCOC1=O [C10-HSL]	does not abolish DNA binding	–	208	do not induce gfp expression	–
Chloro-thiolactone [CTL]	no ability to bind DNA	–	1100	–	IC50 (V. harveyi LuxN; [6]): 28000 nM; IC50 (V. harveyi LuxN; wild type V. harveyi BB120): 150000 nM; CviR folding and solubility when expressed in presence of molecule (CviR [4]): promoted CviR folding and solubility
CCCCCCCCCCCCCC(=O)N[C@H]1CCOC1=O [C14-HSL]	no ability to bind DNA	–	268	do not induce gfp expression	–
CCCCCC(=O)N[C@H]1CCOC1=O [C6-HSL]	binds DNA with high affinity	75	–	–	C. elegans median lifespan ([5]; C. violaceum cviI mutant, C6-HSL 2 μM): 4 days; DNA probe shift of CL loaded CviR on addition of C6-HSL ([1]; 500 nM CviR, 1 μM C6-HSL): modest shift of the DNA probe
CCCC(=O)N[C@H]1CCOC1=O [C4-HSL]	–	12000	–	–	maximal gfp expression level compared with C6-HSL (CviR [2]): can induce maximal gfp expression
Chlorolactone [CL]	no ability to bind DNA	–	377	–	C. elegans median lifespan ([5]; wild type C. violaceum, CL 20 μM, two days without antagonist): seven; IC50 (V. harveyi LuxN; [6]): 14000 nM; IC50 (V. harveyi LuxN; V. harveyi JMH624 + 20 nM AHL): 873 nM; IC50 (V. harveyi LuxN; wild type V. harveyi BB120): 40000 nM; DNA binding of C6-HSL loaded CviR on addition of antagonist ([1]; 500 nM CviR, antagonist 0-10 μM): DNA binding decreased in a dose dependent manner; CviR folding and solubility when expressed in presence of molecule (CviR [4]): promoted CviR folding and solubility
